From paper PMC4508061, “Selectivity Profiling and Biological Activity of Novel β-Carbolines as Potent and Selective DYRK1 Kinase Inhibitors” (PLoS ONE, 2015)

Key:
Assay in all cases: ProQinase radiometric kinase panel
Conditions in all cases: mean of 2 exp.
[1] = molecular target: DAPK3 (Homo sapiens, UniProt O43293)
[2] = molecular target: CK1-gamma1 (Homo sapiens, UniProt Q9HCP0)
[3] = molecular target: MARK4 (Homo sapiens, UniProt Q96L34)
[4] = molecular target: FES (Homo sapiens, UniProt P07332)
[5] = molecular target: NEK9 (Homo sapiens, UniProt Q8TD19)
Sequence of NEK9 (Q8TD19 whole entry): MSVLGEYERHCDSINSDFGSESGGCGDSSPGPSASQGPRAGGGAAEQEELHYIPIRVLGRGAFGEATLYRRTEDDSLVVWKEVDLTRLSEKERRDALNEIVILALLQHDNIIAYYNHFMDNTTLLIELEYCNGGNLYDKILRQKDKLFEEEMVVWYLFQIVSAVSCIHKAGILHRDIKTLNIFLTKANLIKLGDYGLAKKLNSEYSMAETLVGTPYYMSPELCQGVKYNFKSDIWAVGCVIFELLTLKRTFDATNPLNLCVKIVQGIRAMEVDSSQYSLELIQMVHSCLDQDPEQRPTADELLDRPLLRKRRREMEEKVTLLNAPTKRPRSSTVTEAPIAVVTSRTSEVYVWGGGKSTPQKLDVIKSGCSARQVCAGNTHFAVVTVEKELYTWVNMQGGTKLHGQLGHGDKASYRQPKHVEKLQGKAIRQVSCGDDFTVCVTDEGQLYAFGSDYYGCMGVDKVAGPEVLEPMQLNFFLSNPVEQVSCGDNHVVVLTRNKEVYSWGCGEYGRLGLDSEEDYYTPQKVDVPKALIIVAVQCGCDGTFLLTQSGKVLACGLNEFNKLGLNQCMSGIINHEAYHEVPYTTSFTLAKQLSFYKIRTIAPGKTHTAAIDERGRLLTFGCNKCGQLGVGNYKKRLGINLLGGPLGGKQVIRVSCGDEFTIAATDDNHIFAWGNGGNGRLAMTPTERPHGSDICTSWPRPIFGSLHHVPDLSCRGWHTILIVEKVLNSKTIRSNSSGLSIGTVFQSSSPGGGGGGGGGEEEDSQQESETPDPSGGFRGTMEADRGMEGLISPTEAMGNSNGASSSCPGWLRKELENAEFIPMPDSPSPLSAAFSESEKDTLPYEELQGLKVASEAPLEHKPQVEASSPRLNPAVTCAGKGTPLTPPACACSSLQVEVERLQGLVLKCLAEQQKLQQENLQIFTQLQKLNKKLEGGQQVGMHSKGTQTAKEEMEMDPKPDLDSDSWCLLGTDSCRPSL

Sequence of CK1-gamma1 (Q9HCP0 whole entry): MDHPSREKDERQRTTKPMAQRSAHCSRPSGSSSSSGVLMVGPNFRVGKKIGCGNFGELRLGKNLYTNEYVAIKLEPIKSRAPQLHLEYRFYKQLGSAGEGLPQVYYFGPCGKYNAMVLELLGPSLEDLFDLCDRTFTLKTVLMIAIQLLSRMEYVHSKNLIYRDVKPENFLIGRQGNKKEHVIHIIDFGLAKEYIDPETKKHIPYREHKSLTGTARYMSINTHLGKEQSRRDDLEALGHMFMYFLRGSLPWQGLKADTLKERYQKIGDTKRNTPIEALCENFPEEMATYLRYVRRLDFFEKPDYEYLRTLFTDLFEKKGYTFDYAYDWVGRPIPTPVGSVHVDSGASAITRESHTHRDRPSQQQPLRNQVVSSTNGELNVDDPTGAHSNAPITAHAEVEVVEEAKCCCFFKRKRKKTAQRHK
Sequence of DAPK3 (O43293 whole entry): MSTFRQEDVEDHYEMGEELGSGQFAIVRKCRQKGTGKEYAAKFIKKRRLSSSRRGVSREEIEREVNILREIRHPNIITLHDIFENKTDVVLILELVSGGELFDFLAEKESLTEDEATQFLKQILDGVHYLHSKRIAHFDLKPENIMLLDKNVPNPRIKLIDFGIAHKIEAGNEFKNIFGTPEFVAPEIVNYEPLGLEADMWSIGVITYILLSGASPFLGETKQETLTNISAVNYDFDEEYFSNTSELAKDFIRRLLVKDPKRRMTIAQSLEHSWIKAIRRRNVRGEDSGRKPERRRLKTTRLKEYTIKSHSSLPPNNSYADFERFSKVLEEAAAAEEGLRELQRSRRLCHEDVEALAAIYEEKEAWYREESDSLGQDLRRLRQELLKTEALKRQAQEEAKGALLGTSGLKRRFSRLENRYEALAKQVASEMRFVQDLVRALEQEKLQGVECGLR
Sequence of FES (P07332 whole entry): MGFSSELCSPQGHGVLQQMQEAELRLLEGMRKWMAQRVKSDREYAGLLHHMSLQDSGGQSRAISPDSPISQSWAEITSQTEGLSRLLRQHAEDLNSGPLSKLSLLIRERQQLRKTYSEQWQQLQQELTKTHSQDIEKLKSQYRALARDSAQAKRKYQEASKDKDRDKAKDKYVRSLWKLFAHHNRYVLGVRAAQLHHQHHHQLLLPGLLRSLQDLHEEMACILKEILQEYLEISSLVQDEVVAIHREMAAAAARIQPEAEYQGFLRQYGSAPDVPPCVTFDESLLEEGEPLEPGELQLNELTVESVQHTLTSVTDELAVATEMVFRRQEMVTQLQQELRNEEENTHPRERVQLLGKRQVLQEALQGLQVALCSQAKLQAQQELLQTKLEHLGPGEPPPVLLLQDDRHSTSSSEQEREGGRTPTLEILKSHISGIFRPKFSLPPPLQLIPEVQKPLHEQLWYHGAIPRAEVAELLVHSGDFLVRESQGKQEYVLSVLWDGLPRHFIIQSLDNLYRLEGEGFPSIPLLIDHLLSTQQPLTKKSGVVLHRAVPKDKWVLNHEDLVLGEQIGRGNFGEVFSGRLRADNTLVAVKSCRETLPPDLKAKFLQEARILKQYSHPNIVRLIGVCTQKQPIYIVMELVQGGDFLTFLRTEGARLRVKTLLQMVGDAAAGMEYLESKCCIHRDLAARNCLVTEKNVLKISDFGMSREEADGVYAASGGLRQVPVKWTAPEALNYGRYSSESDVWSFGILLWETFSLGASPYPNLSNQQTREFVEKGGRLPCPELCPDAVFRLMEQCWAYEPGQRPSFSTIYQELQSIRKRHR
Sequence of MARK4 (Q96L34 whole entry): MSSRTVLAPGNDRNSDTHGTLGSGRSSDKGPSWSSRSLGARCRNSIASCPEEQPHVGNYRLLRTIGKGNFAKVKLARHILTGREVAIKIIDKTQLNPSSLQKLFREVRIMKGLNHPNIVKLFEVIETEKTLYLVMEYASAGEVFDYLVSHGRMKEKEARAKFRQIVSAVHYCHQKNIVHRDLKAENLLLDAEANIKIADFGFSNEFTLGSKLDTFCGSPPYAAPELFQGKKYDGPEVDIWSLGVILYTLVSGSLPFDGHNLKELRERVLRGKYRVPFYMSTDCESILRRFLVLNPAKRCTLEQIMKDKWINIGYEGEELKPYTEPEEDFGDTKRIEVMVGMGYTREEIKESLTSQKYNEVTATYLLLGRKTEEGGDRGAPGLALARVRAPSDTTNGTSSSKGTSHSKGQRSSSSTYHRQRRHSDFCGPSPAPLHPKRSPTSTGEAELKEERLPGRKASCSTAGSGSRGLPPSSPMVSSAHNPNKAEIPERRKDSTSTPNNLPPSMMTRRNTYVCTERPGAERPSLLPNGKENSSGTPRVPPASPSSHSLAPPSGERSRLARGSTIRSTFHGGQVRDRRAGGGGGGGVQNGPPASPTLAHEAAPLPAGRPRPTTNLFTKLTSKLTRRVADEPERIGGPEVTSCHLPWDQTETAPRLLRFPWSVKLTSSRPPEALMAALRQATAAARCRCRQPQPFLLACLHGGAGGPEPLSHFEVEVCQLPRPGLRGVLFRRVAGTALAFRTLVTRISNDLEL

- residual activity at 1 µM, Mean [1]: 98 % of control
- residual activity at 1 µM, Mean [2]: 92 % of control
- residual activity at 1 µM, Mean [3]: 104 % of control
- residual activity at 1 µM, Mean [4]: 93 % of control
SMILES: COc1ccc2c3ccnc(Cl)c3n(CC#N)c2c1 [AnnH75]
- residual activity at 1 µM, Mean [5]: 95 % of control
